Results from ChEMBL document CHEMBL4308841, “Synthesis, in vitro antiproliferative activity, and kinase inhibitory effects of pyrazole-containing diarylureas and diarylamides” (Eur J Med Chem, 2018).

Legend:
[1] = test system: SN12C; assay: Growth inhibition of human SN12C cells assessed as cell growth at 100 uM incubated for 48 hrs by sulforhodamine B assay relative to control; type: functional; settings: read-out: Activity
[2] = test system: OVCAR-8; assay: Growth inhibition of human OVCAR8 cells incubated for 48 hrs by sulforhodamine B assay; type: functional, cell-based; settings: OVCAR-8, 48 h
[3] = test system: MCF7; assay: Growth inhibition of human MCF7 cells assessed as cell growth at 100 uM incubated for 48 hrs by sulforhodamine B assay relative to control; type: functional; settings: MCF7, 48 h, read-out: Activity
[4] = test system: NCI-H226; assay: Growth inhibition of human NCI-H226 cells assessed as cell growth at 0.01 uM incubated for 48 hrs by sulforhodamine B assay relative to control; type: functional; settings: NCI-H226, 48 h, read-out: Activity
[5] = test system: SR; assay: Growth inhibition of human SR cells incubated for 48 hrs by sulforhodamine B assay; type: functional, cell-based
[6] = test system: SR; assay: Growth inhibition of human SR cells assessed as cell growth at 1 uM incubated for 48 hrs by sulforhodamine B assay relative to control; type: functional; settings: read-out: Activity
[7] = test system: SNB-19; assay: Growth inhibition of human SNB19 cells assessed as cell growth at 1 uM incubated for 48 hrs by sulforhodamine B assay relative to control; type: functional; settings: SNB-19, 48 h, read-out: Activity
[8] = test system: U-251; assay: Growth inhibition of human U251 cells assessed as cell growth at 0.1 uM incubated for 48 hrs by sulforhodamine B assay relative to control; type: functional; settings: U-251, 48 h, read-out: Activity
[9] = test system: BT-549; assay: Growth inhibition of human BT549 cells assessed as cell growth at 100 uM incubated for 48 hrs by sulforhodamine B assay relative to control; type: functional; settings: BT-549, 48 h, read-out: Activity
[10] = test system: SF-539; assay: Growth inhibition of human SF539 cells assessed as cell growth at 1 uM incubated for 48 hrs by sulforhodamine B assay relative to control; type: functional; settings: SF-539, 48 h, read-out: Activity
[11] = test system: UO-31; assay: Growth inhibition of human UO31 cells assessed as cell growth at 1 uM incubated for 48 hrs by sulforhodamine B assay relative to control; type: functional; settings: UO-31, 48 h, read-out: Activity
[12] = test system: CAKI-1; assay: Growth inhibition of human Caki1 cells incubated for 48 hrs by sulforhodamine B assay; type: functional, cell-based; settings: CAKI-1, 48 h
[13] = test system: HCC 2998; assay: Growth inhibition of human HCC2998 cells assessed as cell growth at 0.01 uM incubated for 48 hrs by sulforhodamine B assay relative to control; type: functional; settings: HCC 2998, 48 h, read-out: Activity
[14] = test system: MDA-MB-468; assay: Growth inhibition of human MDA-MB-468 cells assessed as cell growth at 100 uM incubated for 48 hrs by sulforhodamine B assay relative to control; type: functional; settings: MDA-MB-468, 48 h, read-out: Activity
[15] = test system: BT-549; assay: Growth inhibition of human BT549 cells assessed as cell growth at 0.1 uM incubated for 48 hrs by sulforhodamine B assay relative to control; type: functional; settings: BT-549, 48 h, read-out: Activity
[16] = test system: HCC 2998; assay: Growth inhibition of human HCC2998 cells assessed as cell growth at 1 uM incubated for 48 hrs by sulforhodamine B assay relative to control; type: functional; settings: HCC 2998, 48 h, read-out: Activity
[17] = test system: MCF7; assay: Growth inhibition of human MCF7 cells assessed as cell growth at 1 uM incubated for 48 hrs by sulforhodamine B assay relative to control; type: functional; settings: MCF7, 48 h, read-out: Activity
[18] = test system: HCC 2998; assay: Growth inhibition of human HCC2998 cells assessed as cell growth at 100 uM incubated for 48 hrs by sulforhodamine B assay relative to control; type: functional; settings: HCC 2998, 48 h, read-out: Activity
[19] = test system: OVCAR-3; assay: Growth inhibition of human OVCAR3 cells assessed as cell growth at 1 uM incubated for 48 hrs by sulforhodamine B assay relative to control; type: functional; settings: OVCAR-3, 48 h, read-out: Activity
[20] = test system: SK-MEL-2; assay: Growth inhibition of human SK-MEL-2 cells incubated for 48 hrs by sulforhodamine B assay; type: functional, cell-based; settings: SK-MEL-2, 48 h
[21] = test system: NCI-H226; assay: Growth inhibition of human NCI-H226 cells assessed as cell growth at 0.1 uM incubated for 48 hrs by sulforhodamine B assay relative to control; type: functional; settings: NCI-H226, 48 h, read-out: Activity
[22] = test system: MDA-MB-435; assay: Growth inhibition of human MDA-MB-435 cells assessed as cell growth at 100 uM incubated for 48 hrs by sulforhodamine B assay relative to control; type: functional; settings: MDA-MB-435, 48 h, read-out: Activity
[23] = test system: MOLT-4; assay: Growth inhibition of human MOLT4 cells incubated for 48 hrs by sulforhodamine B assay; type: functional, cell-based; settings: MOLT-4, 48 h
[24] = test system: K562; assay: Growth inhibition of human K562 cells assessed as cell growth at 100 uM incubated for 48 hrs by sulforhodamine B assay relative to control; type: functional; settings: K562, 48 h, read-out: Activity
[25] = test system: HCT-116; assay: Growth inhibition of human HCT116 cells assessed as cell growth at 0.01 uM incubated for 48 hrs by sulforhodamine B assay relative to control; type: functional; settings: HCT-116, 48 h, read-out: Activity
[26] = test system: A498; assay: Growth inhibition of human A498 cells assessed as cell growth at 100 uM incubated for 48 hrs by sulforhodamine B assay relative to control; type: functional; settings: A498, 48 h, read-out: Activity
[27] = test system: OVCAR-5; assay: Growth inhibition of human OVCAR5 cells assessed as cell growth at 0.1 uM incubated for 48 hrs by sulforhodamine B assay relative to control; type: functional; settings: OVCAR-5, 48 h, read-out: Activity
[28] = test system: RPMI-8226; assay: Growth inhibition of human RPMI8226 cells assessed as cell growth at 0.1 uM incubated for 48 hrs by sulforhodamine B assay relative to control; type: functional; settings: RPMI-8226, 48 h, read-out: Activity
[29] = test system: RXF 393; assay: Growth inhibition of human RXF393 cells assessed as cell growth at 0.1 uM incubated for 48 hrs by sulforhodamine B assay relative to control; type: functional; settings: RXF 393, 48 h, read-out: Activity
[30] = test system: M14; assay: Growth inhibition of human M14 cells assessed as cell growth at 1 uM incubated for 48 hrs by sulforhodamine B assay relative to control; type: functional; settings: M14, 48 h, read-out: Activity
[31] = read-out: LC50 (the source's name)
[32] = read-out: pLC50 (the source's name) (converted)

COc1cc(Cl)cc(-c2nn(-c3cccc(NC(=O)Nc4cccc(C(F)(F)F)c4)c3)cc2-c2ccncc2)c1
growth at 100 µM [1]: -20% | GI50 ([2]; read-out: GI50): 1.12 µM | CC50 [2, 31]: > 100 µM | TGI ([2]; read-out: TGI): 45.8 µM | GI50 ([2]; read-out: pGI50 (converted)): 1.12 µM | CC50 [2, 32]: > 100 µM | TGI ([2]; read-out: pTGI (converted)): 4.9 µM | growth at 100 µM [3]: -24% | growth at 0.01 µM [4]: 95% | GI50 ([5]; read-out: GI50): 1.14 µM | CC50 [5, 31]: > 100 µM | TGI ([5]; read-out: TGI): 43.9 µM | GI50 ([5]; read-out: pGI50 (converted)): 1.15 µM | CC50 [5, 32]: > 100 µM | TGI ([5]; read-out: pTGI (converted)): 4.37 µM | growth at 1 µM [6]: 55% | growth at 1 µM [7]: 77% | growth at 0.1 µM [8]: 93% | growth at 100 µM [9]: -48% | growth at 1 µM [10]: 84% | growth at 1 µM [11]: 51% | GI50 ([12]; read-out: GI50): 1.29 µM | CC50 [12, 31]: > 100 µM | TGI ([12]; read-out: TGI): 52 µM | GI50 ([12]; read-out: pGI50 (converted)): 1.29 µM | CC50 [12, 32]: > 100 µM | TGI ([12]; read-out: pTGI (converted)): 8.91 µM | growth at 0.01 µM [13]: 98% | growth at 100 µM [14]: -34% | growth at 0.1 µM [15]: 114% | growth at 1 µM [16]: 98% | growth at 1 µM [17]: 62% | growth at 100 µM [18]: -83% | growth at 1 µM [19]: 38% | GI50 ([20]; read-out: GI50): 1.29 µM | CC50 [20, 31]: 73.4 µM | TGI ([20]; read-out: TGI): 30.5 µM | GI50 ([20]; read-out: pGI50 (converted)): 1.29 µM | CC50 [20, 32]: 7.41 µM | TGI ([20]; read-out: pTGI (converted)): 3.09 µM | growth at 0.1 µM [21]: 95% | growth at 100 µM [22]: -74% | GI50 ([23]; read-out: GI50): 1.13 µM | CC50 [23, 31]: > 100 µM | TGI ([23]; read-out: TGI): 43.5 µM | GI50 ([23]; read-out: pGI50 (converted)): 1.12 µM | CC50 [23, 32]: > 100 µM | TGI ([23]; read-out: pTGI (converted)): 4.37 µM | growth at 100 µM [24]: -22% | growth at 0.01 µM [25]: 101% | growth at 100 µM [26]: -6% | growth at 0.1 µM [27]: 54% | growth at 0.1 µM [28]: 98% | growth at 0.1 µM [29]: 92% | growth at 1 µM [30]: 64%
